Measurements reported in ChEMBL document CHEMBL4507291 (2021).

Columns and labels:
[1] = biological target: AMP-activated protein kinase (AMPK) alpha-1/beta-1/gamma-1 (Homo sapiens) (UniProt P54619+Q9Y478+Q13131); assay: AMPK A1/B1/G1 Kinase screen; assay type: protein-complex assay; conditions: Compound concentration 1.0 uM
[2] = biological target: T1, Serine/threonine-protein kinase Chk1 (Homo sapiens) (UniProt O14757); assay: CHEK1 (CHK1) Kinase screen; conditions: Compound concentration 1.0 uM
T1 sequence (whole entry): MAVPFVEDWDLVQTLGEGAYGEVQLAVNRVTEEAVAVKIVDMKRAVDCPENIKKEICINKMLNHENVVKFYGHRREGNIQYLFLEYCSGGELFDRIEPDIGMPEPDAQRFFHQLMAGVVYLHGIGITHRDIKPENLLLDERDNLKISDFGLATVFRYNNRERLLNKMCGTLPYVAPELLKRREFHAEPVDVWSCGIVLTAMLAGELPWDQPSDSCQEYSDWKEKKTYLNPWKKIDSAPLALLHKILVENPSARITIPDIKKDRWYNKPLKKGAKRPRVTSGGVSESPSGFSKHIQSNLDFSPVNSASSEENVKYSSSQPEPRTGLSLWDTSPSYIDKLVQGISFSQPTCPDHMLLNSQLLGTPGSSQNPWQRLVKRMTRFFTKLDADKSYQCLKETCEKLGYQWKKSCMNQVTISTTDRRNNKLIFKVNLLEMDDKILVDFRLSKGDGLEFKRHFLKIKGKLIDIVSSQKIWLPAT

[3] = biological target: DNA-dependent protein kinase catalytic subunit (Homo sapiens) (UniProt P78527); assay: DNA-PK Kinase screen; conditions: Compound concentration 1.0 uM
[4] = biological target: Ephrin type-A receptor 5 (Homo sapiens) (UniProt P54756); assay: EPHA5 Kinase screen; conditions: Compound concentration 1.0 uM
[5] = biological target: Fibroblast growth factor receptor 2 (Homo sapiens) (UniProt P21802); assay: FGFR2 Kinase screen; conditions: Compound concentration 1.0 uM
[6] = biological target: T2, Dual specificity mitogen-activated protein kinase kinase 6 (Homo sapiens) (UniProt P52564); assay: MAP2K6 (MKK6) Kinase screen; conditions: Compound concentration 1.0 uM
T2 sequence (whole entry): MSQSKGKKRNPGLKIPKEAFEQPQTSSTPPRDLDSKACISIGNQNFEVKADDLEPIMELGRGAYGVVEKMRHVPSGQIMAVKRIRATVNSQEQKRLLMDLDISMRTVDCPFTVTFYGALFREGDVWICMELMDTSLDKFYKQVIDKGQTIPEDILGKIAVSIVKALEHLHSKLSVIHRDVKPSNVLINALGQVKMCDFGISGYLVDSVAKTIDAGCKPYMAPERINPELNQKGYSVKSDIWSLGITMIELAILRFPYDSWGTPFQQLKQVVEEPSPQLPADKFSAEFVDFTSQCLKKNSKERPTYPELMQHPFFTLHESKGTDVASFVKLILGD

[7] = biological target: Mitogen-activated protein kinase 8 (Homo sapiens) (UniProt P45983); assay: MAPK8 (JNK1) Kinase screen; conditions: Compound concentration 1.0 uM
[8] = biological target: Serine/threonine-protein kinase Nek4 (Homo sapiens) (UniProt P51957); assay: NEK4 Kinase screen; conditions: Compound concentration 1.0 uM
[9] = tested on: Platelet-derived growth factor receptor alpha (Homo sapiens), P16234 [V561D]; assay: PDGFRA V561D Kinase screen; conditions: Compound concentration 1.0 uM
[10] = biological target: Focal adhesion kinase 1 (Homo sapiens) (UniProt Q05397); assay: PTK2 (FAK) Kinase screen; conditions: Compound concentration 1.0 uM
[11] = biological target: T3, Serine/threonine-protein kinase Sgk1 (Homo sapiens) (UniProt O00141); assay: SGK (SGK1) Kinase screen; conditions: Compound concentration 1.0 uM
T3 sequence (whole entry): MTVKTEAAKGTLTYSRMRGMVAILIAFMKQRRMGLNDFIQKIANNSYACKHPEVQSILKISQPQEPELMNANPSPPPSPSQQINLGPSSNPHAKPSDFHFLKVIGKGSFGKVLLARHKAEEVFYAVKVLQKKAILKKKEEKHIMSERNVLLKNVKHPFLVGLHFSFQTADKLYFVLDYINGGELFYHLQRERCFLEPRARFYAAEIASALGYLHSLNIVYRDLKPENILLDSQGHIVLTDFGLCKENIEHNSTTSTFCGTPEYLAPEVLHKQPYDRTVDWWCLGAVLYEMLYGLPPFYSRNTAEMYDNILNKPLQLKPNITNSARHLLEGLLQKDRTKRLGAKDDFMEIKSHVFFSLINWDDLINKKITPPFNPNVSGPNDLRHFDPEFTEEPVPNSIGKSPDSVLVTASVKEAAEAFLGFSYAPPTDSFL

[12] = biological target: T4, Serine/threonine-protein kinase 4 (Homo sapiens) (UniProt Q13043); assay: STK4 (MST1) Kinase screen; conditions: Compound concentration 1.0 uM
T4 sequence (whole entry): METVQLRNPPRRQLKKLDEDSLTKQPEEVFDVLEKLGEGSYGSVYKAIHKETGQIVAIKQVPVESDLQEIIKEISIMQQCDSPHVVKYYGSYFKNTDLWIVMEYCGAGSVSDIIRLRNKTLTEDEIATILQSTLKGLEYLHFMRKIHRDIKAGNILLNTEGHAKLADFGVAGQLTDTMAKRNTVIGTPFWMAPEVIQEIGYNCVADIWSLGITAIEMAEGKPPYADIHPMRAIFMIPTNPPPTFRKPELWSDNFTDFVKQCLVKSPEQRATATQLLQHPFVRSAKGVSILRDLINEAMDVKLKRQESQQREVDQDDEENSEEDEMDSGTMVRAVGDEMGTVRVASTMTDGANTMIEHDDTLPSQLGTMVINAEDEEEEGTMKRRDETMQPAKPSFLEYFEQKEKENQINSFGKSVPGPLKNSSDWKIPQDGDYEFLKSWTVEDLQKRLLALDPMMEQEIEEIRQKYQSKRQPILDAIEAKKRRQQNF

[13] = biological target: Corticotropin-releasing factor receptor 1 (Homo sapiens) (UniProt P34998); assay: Corticotropin Releasing Factor CRF1 Eurofins-Panlabs radioligand binding assay; conditions: Compound concentration 10.0 uM
[14] = biological target: Vasopressin V2 receptor (Homo sapiens) (UniProt P30518); assay: Inhibition of Vasopressin V2 at 10 µM in the Eurofins-Panlabs radioligand binding assay (Eurofins_assay_287610); parameters: ligand concentration 4 nM; conditions: Compound concentration 10.0 uM
[15] = biological target: Adenosine receptor A1 (Homo sapiens) (UniProt P30542); conditions: Compound concentration 10.0 uM
Rattus norvegicus = species on record: Rattus norvegicus; conditions: Compound concentration 10.0 uM

Measured: inhibition

Ephrin type-A receptor 5 (Homo sapiens), sequence (P54756 whole entry): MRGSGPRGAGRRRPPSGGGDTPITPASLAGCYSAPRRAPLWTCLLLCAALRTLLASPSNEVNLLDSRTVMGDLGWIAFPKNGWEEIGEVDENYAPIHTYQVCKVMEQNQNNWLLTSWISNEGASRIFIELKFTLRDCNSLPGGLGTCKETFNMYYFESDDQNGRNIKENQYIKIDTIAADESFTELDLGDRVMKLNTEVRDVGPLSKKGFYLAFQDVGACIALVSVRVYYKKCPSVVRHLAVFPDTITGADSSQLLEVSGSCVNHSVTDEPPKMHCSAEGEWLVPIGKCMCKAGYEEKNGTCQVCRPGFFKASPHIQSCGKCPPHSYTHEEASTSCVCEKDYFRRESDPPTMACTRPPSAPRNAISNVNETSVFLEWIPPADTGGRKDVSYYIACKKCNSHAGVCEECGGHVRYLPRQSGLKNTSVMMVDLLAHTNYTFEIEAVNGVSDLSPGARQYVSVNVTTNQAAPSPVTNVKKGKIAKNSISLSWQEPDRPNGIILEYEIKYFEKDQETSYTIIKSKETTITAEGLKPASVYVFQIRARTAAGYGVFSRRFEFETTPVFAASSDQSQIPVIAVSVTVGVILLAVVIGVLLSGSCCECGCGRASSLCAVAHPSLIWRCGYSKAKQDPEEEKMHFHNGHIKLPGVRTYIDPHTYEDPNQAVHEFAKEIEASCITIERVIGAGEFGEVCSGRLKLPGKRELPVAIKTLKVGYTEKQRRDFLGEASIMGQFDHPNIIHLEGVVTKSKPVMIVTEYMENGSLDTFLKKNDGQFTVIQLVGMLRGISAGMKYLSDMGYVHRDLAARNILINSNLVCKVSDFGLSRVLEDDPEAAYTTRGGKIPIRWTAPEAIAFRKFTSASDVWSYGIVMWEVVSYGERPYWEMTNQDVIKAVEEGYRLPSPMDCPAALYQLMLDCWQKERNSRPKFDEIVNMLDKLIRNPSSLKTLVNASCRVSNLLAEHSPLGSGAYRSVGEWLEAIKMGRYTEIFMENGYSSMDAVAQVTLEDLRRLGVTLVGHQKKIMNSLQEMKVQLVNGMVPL
Focal adhesion kinase 1 (Homo sapiens), sequence (Q05397 2-1052 limits assumed): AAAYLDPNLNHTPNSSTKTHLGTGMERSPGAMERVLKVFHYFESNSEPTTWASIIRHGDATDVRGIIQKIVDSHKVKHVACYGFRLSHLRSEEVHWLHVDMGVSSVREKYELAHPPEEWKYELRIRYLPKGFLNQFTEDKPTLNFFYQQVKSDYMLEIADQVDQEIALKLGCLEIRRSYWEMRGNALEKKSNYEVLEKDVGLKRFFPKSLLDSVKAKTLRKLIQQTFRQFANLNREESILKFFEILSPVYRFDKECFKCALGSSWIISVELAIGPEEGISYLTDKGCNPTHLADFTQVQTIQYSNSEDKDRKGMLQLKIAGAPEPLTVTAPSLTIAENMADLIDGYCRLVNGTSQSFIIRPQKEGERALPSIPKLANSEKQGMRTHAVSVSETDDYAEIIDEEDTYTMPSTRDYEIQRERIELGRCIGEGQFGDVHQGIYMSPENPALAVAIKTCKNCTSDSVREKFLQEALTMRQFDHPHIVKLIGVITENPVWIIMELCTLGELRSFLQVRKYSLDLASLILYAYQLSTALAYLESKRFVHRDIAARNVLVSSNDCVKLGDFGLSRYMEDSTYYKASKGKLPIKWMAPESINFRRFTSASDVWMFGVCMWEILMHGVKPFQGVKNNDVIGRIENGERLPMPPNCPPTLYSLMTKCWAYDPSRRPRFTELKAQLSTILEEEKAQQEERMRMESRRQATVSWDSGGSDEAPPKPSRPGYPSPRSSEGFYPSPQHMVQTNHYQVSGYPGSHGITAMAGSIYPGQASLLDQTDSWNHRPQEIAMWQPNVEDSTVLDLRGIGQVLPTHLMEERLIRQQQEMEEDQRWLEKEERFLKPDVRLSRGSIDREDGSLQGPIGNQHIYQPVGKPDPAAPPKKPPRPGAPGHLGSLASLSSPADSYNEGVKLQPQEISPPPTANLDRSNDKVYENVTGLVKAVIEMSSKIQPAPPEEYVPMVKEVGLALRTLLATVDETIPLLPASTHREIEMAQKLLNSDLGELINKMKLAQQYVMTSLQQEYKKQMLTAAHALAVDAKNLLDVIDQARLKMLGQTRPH
Adenosine receptor A1 (Homo sapiens), sequence (P30542 whole entry): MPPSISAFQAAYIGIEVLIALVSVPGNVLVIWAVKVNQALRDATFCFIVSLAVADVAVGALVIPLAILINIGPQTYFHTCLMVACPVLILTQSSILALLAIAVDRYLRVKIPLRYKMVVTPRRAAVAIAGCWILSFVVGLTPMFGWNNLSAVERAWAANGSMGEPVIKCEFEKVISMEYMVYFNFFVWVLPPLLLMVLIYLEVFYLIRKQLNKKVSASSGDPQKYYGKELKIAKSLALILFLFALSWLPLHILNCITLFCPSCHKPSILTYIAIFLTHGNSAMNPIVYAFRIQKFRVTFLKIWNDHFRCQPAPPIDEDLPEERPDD
Mitogen-activated protein kinase 8 (Homo sapiens), sequence (P45983 whole entry): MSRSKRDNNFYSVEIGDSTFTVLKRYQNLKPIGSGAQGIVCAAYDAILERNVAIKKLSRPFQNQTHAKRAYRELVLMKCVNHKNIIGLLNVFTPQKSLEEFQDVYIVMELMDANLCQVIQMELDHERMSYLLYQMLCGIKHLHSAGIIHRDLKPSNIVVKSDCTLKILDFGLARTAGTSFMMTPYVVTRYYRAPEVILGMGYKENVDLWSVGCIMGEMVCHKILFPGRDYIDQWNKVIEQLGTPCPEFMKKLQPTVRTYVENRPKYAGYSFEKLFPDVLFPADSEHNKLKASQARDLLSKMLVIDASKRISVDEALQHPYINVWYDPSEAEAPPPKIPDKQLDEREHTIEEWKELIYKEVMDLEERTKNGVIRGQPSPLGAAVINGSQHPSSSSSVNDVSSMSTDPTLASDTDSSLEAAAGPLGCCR
Fibroblast growth factor receptor 2 (Homo sapiens), sequence (P21802 22-821 limits assumed): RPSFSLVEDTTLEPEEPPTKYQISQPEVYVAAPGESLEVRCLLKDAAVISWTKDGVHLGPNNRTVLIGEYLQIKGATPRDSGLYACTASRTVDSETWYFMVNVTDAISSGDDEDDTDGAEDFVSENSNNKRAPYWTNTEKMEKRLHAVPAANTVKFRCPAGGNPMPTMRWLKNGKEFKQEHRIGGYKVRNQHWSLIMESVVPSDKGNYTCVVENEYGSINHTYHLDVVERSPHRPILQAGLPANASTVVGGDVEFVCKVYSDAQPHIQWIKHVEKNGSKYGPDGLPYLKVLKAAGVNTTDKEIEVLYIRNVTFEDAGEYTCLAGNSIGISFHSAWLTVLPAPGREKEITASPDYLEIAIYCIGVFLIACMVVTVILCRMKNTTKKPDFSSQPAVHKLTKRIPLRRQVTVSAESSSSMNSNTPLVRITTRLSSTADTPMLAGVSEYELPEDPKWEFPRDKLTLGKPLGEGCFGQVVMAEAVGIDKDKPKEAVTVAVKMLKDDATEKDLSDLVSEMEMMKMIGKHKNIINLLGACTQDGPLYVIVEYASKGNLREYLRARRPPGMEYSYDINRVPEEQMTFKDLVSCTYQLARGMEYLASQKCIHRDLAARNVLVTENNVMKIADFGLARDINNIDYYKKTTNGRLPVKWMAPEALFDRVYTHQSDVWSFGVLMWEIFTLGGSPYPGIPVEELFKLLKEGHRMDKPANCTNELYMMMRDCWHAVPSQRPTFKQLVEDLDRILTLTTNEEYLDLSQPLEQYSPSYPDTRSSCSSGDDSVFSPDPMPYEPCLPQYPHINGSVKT
Vasopressin V2 receptor (Homo sapiens), sequence (P30518 whole entry): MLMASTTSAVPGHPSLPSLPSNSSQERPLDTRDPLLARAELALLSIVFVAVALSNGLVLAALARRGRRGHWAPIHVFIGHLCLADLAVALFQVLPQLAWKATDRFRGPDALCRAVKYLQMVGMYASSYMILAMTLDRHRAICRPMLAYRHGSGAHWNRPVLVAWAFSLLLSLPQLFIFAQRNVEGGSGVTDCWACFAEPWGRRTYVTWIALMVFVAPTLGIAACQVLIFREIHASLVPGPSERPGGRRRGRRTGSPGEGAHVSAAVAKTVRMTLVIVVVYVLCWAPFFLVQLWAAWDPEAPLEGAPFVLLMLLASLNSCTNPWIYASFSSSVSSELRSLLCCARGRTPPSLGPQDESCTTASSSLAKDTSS
Serine/threonine-protein kinase Nek4 (Homo sapiens), sequence (P51957 whole entry, looked up): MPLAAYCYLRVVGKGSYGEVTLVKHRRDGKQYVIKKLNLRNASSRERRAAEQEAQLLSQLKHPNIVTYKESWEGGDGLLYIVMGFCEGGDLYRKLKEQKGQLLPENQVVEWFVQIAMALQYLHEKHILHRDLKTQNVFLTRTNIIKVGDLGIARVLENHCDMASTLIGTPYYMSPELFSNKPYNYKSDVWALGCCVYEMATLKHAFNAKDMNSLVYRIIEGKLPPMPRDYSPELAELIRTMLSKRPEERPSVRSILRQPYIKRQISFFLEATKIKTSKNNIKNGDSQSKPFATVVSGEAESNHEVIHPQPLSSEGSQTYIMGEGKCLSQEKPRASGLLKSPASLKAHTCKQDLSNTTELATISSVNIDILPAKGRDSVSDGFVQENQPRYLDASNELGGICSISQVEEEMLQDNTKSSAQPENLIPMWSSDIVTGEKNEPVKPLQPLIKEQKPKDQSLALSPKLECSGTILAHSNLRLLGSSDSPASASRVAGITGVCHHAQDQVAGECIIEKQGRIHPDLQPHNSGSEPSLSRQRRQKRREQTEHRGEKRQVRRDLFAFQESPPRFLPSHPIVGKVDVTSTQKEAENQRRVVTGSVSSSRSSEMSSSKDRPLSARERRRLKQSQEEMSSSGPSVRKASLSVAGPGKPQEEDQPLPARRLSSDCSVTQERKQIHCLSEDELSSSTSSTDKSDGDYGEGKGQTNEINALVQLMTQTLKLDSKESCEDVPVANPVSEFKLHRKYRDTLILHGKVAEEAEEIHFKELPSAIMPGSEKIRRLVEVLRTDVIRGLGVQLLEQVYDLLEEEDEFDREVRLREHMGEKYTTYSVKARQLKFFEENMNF

C[C@@H]1CN(c2cc(-c3n[nH]c4ccc(OC5(C)CC5)cc34)ncn2)C[C@H](C)O1 [MLi-2]
inactive: [1] -3.77% | [2] -0.226% | [3] 21.6% | [4] 5.05% | [5] -3.35% | [6] -2.67% | [7] -0.139% | [8] 6.39% | [9] 8.06% | [10] 14.2% | [11] -1.63% | [12] 21.8% | [13] 6% | [14] 9% | [15] 29% | Rattus norvegicus 0%
